This note sets out measurements from patent publication US20250179057A1, “MEK IMMUNE ONCOLOGY INHIBITORS AND THERAPEUTIC USES THEREOF” (Immuneering Corporation, priority 2022, published 2025).

Values after ≈ are worked out from the molar mass of the structure shown. Where two headings read alike, the source gives them in different places. A value given as a limit tells only on which side of the number the result lay.

Data set [1] relates to phospho-ERK in A549 (KRAS G12S) cells. The data set can be described thus: Cell-based pERK (pERK:tERK) in A549 cells. Conditions: for A549-pERK (10 nM, 2 h): phospho- to total protein ratio normalized to DMSO control (Table 9); for activity at 0.01 µM: Homo sapiens, A549, 2 h, read-out: A549-pERK (10 nM, 2 h). In short, it runs like this: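 Readout was pERK versus tERK by Western blot with IRDye-labelled secondary antibodies, imaged and quantified on a LI-COR Odyssey. Lysates were loaded at 1 mg/mL protein after Bradford estimation.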

In data set [2] the test system is phospho-MEK in A549 cells. In words: Cell-based pMEK (pMEK:tMEK, CRAF bypass) in A549 cells. Conditions: 2 h; for A549-pMEK 100 nM, 2 h: normalized to DMSO control (Table 13). As for the experimental part:
Materials and Methods: A549 or A375 cells were seeded in 6-well plates at an appropriate seeding density on day 0. On day 2 or 3, after checking the health and confluency of cells, the media was aspirated and replaced with 1 mL media containing a predetermined concentration of compound and incubated for 2 hours. After 2 hours, the media was aspirated, and the cells washed 2 times with cold PBS. Cells were lysed on ice, with 50 uL 1×CST lysis buffer +1 mM PMSF for 5 minutes. After 5 minutes, cells were removed using a scraper and transferred to cold 1.5 mL tubes, and centrifuged for 10 min, 4° C., 14,000×g. Supernatant was gently removed and snap frozen in liquid nitrogen. Protein concentration of the lysate was determined using Bradford Reagent (analyzed using SpectraMax M2E) and diluted to 1 mg/mL or pERK or 1.5 mg/mL for pMEK analysis. […] All dilutions were in Milk-free antibody diluent.
(§1) A549 or […] cells were treated in duplicate for two hours with compounds at varying concentrations. After two hours, the cells were lysed, snap frozen, and stored at −80° C. After storage, the lysate was quantified with the Bradford assay. Before the lysates were prepared to run on the Jess, the lysates were diluted to 1 mg/mL for pERK analysis and 1.5 mg/mL pMEK analysis using quantitative Western blotting. ERK and MEK phosphorylation levels were estimated by taking the ratio of phospho-protein to total protein and normalizing to the DMSO control.
as §1

Data set [3] can be described thus: Mouse pharmacokinetics (oral cassette dosing), plasma. It counts as in vivo. The note with it: BALB/c immunocompetent mice, 5 mg/kg p.o. As for the experimental part:
Female mice (BALC/c) received a single dose (3 mice/treatment) of vehicle (10% 1N HCl:90% [20% […]) and at 0.5, 1, 2, 4, 8, 12 and 24-hour post dose humanely euthanized.
Blood was obtained through cardiac puncture into K+EDTA tubes, mixed by inversion and centrifuged to obtain the plasma. Blood will be kept on ice or at approximately 4° C. prior. Centrifugation will take place within 30 minutes of blood collection affording plasma samples. Plasma samples will be frozen as soon as possible after centrifugation and stored at −80° C. until analysis. All samples will be analysed by means of LC-MS/MS. Method development for bioanalysis will be performed by pharmacokinetics Department of Crown Bioscience (Taicang) Inc. using LC-MS/MS analysis (using Waters HSS T3 2.1×50 mm (1.8 um) LC column, and an API-4000 Electrospray MS unit). The results of a kinetic solubility (free base) study are represented in Table 19.

A short description of data set [4]: Kinetic solubility (PBS pH 7.4; 4 hr). In kind it is physicochemical. The note with it: free base (Table 19), read-out: Kinetic Solubility. Here is the method:
The plates were shaken for 4 h at room temperature in an Eppendorf Thermomixer. After incubation, the plates were centrifuged for 20 minutes at 4680 rpm. From the supernatant, 150 μL was transferred to a new 96 well plate and 50 μL DMSO was added to ensure continued dissolution. Samples were measured on LC-UV at injection volumes of 1 and 8 μL. Peak areas were determined and compared to peak areas obtained using calibration curves of the test compounds in DMSO.

Data set [5] is described as follows: PAMPA (pH 7.4). It counts as in vitro ADME. Conditions: PAMPA; pH = 7.4 (Table 14). (In general: PAMPA measures passive passage across an artificial lipid membrane.)
Data set [6] has as its target CYP2C9 (Homo sapiens, UniProt P11712). The data set can be described thus: CYP450 panel inhibition in human liver microsomes, 2C9 (diclofenac). The source says: The quenched samples were stored refrigerated.
For orientation: Microsomes from liver hold many membrane-bound enzymes, among them those of drug oxidation.

Setting [7] is: female, mouse, read-out: AUC0-t.
Where [8] appears, read: PBS buffer, pH 7.4, aqueous buffer, kinetic from dmso stock.

Chain of CYP2C9 (P11712 whole entry): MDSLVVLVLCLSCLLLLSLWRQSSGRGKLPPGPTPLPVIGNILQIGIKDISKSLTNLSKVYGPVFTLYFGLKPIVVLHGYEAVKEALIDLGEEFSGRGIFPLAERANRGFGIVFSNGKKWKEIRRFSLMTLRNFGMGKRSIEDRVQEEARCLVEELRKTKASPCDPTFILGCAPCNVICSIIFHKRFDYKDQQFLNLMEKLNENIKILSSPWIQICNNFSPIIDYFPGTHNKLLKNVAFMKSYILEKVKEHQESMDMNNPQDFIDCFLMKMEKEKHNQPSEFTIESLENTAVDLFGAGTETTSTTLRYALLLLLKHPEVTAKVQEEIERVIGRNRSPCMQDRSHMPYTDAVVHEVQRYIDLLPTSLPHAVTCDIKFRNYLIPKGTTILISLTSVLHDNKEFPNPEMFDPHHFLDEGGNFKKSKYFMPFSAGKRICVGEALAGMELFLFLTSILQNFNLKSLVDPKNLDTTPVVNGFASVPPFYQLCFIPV

Usually Cmax stands for the highest concentration seen after dosing. For orientation: Tmax means the time from dosing to the highest level. Broadly, the solubility (kinetic) is the concentration staying in solution when a stock, usually in DMSO, is diluted into the medium. For `CNS(=O)(=O)Nc1cccc(Cc2c(CN(C)C)c3cc(Cl)c(OC(=O)N(C)C)cc3oc2=O)c1F` [Compound 24], in data set [1], the “A549-pERK (10 nM, 2 h)” value is on record as 42.4. For the same compound, the “A549-CRAF BP 100 nM, 2 h” value in data set [2] (pMEK to total MEK normalized to DMSO control) is given as 55.9 (mean, n = 2). Further, in data set [3], the “AUC(0-t)” value amounted to 850.1 ng·h/mL, the “Cmax” value came to 422.7 ng/mL and the “Tmax” value stood at 60 min. The kinetic solubility at 4 h in data set [4] worked out at 57 µM (≈ 30.8 µg/mL).

`CCN(C)Cc1c(Cc2cccc(NS(=O)(=O)CC)c2F)c(=O)oc2cc(OC(=O)N(C)C)c(Cl)cc12` [Compound 166]: in data set [1], the “A549-pERK (10 nM, 2 h)” value was 60.9. Further, in data set [3], the “AUC(0-t)” value amounted to 11.8 ng·h/mL, the “Cmax” value was 9.1 ng/mL and the “Tmax” value amounted to 120 min. In data set [4], the kinetic solubility at 4 h turned out to be 80 µM (≈ 44.3 µg/mL).

A word on the Papp: it is a coefficient for how fast a substance crosses the barrier. Low values mean poor permeation, high ones ready permeation. `CN(C)Cc1c(Cc2cccc(NS(=O)(=O)CC(F)(F)F)c2F)c(=O)oc2cc(OC(=O)N(C)C)c(F)cc12` [Compound 236]: in data set [1], the activity at 0.01 µM was 94.1%. In data set [5], this compound showed a Papp at 4 h, 50 μM of 52 ×10⁻⁶ cm/s.

As for `CCN(C)Cc1c(Cc2cccc(NS(=O)(=O)CC(F)(F)F)c2F)c(=O)oc2cc(OC(=O)N(C)C)c(F)cc12` [Compound 237], the activity at 0.01 µM in data set [1] was found to be 114%. Moreover, in data set [5], the Papp at 4 h, 50 μM worked out at 50 ×10⁻⁶ cm/s.

In the case of `CN(C)C(=O)Oc1cc2oc(=O)c(Cc3cccc(NS(=O)(=O)CC(F)(F)F)c3F)c(CN3CCNCC3)c2cc1F` [Compound 239], the activity at 0.01 µM in data set [1] stood at 96.1%. Moreover, in data set [5], the Papp at 4 h, 50 μM is 0.8 ×10⁻⁶ cm/s.

Regarding `CNS(=O)(=O)Nc1cccc(Cc2c(CN(C)CCF)c3ccc(OC(=O)N(C)C)cc3oc2=O)c1F` [Compound 240], the activity at 0.01 µM in data set [1] was 66%. In addition, the “A549-pMEK 100 nM, 2 h” value in data set [2] amounted to 34.2. Besides, in data set [3] (setting [7]), the AUC(0-t) was 290 ng·h/mL. Besides, the Cmax in data set [3] (female, mouse, read-out: Cmax) came out at 865 ng/mL. The Tmax in data set [3] (female, mouse, read-out: Tmax) worked out at 4.98 min. In data set [5], this compound registered a Papp at 4 h, 50 μM of 62 ×10⁻⁶ cm/s. In data set [4] (setting [8]), the solubility (kinetic) at 4 h worked out at 67 µM (≈ 36.1 µg/mL).

On to `CCS(=O)(=O)Nc1cccc(Cc2c(CN(C)CCF)c3ccc(OC(=O)N(C)C)cc3oc2=O)c1F` [Compound 241], for which the activity at 0.01 µM in data set [1] turned out to be 96.6%. The same compound gave a Papp at 4 h, 50 μM in data set [5] of 69 ×10⁻⁶ cm/s.

On to `CNS(=O)(=O)Nc1cccc(Cc2c(CN(C)CC(F)F)c3ccc(OC(=O)N(C)C)cc3oc2=O)c1F` [Compound 242], for which the activity at 0.01 µM in data set [1] is 69.7%. In addition, in data set [2], the “A549-pMEK 100 nM, 2 h” value amounted to 33.2. In data set [5], this compound yielded a Papp at 4 h, 50 μM of 72 ×10⁻⁶ cm/s.

In the case of `CCS(=O)(=O)Nc1cccc(Cc2c(CN(C)CC(F)F)c3ccc(OC(=O)N(C)C)cc3oc2=O)c1F` [Compound 243], in data set [1], the activity at 0.01 µM was determined as 86.7%. In data set [5], this compound displayed a Papp at 4 h, 50 μM of 48 ×10⁻⁶ cm/s.

With `CNS(=O)(=O)Nc1cccc(Cc2c(CN(C)C)c3c(F)cc(OC(=O)N(C)C)cc3oc2=O)c1F` [Compound 244, 4-((dimethylamino)methyl)-5-fluoro-3-(2-fluoro-3-((N-methylsulfamoyl)amino)benzyl)-2-oxo-2H-chromen-7-yl dimethylcarbamate], in data set [1], the activity at 0.01 µM was 44.7%. In data set [2], the “A549-pMEK 100 nM, 2 h” value came to 26.1. The same compound gave a Papp at 4 h, 50 μM in data set [5] of 8 ×10⁻⁶ cm/s.

As to `CN(C)C(=O)Oc1cc2oc(=O)c(Cc3cccc(NS(=O)(=O)CC(F)(F)F)c3F)c(CN3CCNCC3)c2cc1Cl` [Compound 247, 6-chloro-3-(2-fluoro-3-((2,2,2-trifluoroethyl)sulfonamido)benzyl)-2-oxo-4-(piperazin-1-ylmethyl)-2H-chromen-7-yl dimethylcarbamate], the activity at 0.01 µM in data set [1] was determined as 105%. The Papp at 4 h, 50 μM in data set [5] was 7 ×10⁻⁶ cm/s.

One may read the AUC(0-inf) as the area under the concentration-time curve extrapolated to infinity. As usually defined, the half-life is the time in which the quantity being followed falls by half. `CNS(=O)(=O)Nc1cccc(Cc2c(CN(C)C)c3ccc(OC(=O)N(C)C)cc3oc2=O)c1Br` [Compound 248]: the activity at 0.01 µM in data set [1] amounted to 80.9%. Besides, the “pERK:tERK (10 nM 2 h A549)” value in data set [1] (Phospho-ERK Screen in A549 (KRAS G12S), head 10 nM 2 h, title 10 μM for 2 hours) amounted to 81. Besides, in data set [3] (female, mouse), the AUC(0-inf) worked out at 28.3 ng·h/mL and the half-life is 312 min. For the same compound, the AUC(0-t) in data set [3] (setting [7]) stood at 19.5 ng·h/mL. Further, the Cmax in data set [3] (female, mouse, read-out: Cmax) is 8.3 ng/mL. Moreover, the Tmax in data set [3] (female, mouse, read-out: Tmax) came out at 30 min. Moreover, the Papp at 4 h, 50 μM in data set [5] came out at 60 ×10⁻⁶ cm/s. For the same compound, the kinetic solubility at 4 h in data set [4] (setting [8]) is above 80 µM.

`CNS(=O)(=O)Nc1cccc(Cc2c(CN(C)C)c3c(OC)cc(OC(=O)N(C)C)cc3oc2=O)c1F` [Compound 252, 4-((dimethylamino)methyl)-3-(2-fluoro-3-((N-methylsulfamoyl)amino)benzyl)-5-methoxy-2-oxo-2H-chromen-7-yl dimethylcarbamate]: in data set [5], the Papp at 4 h, 50 μM was found to be 15 ×10⁻⁶ cm/s.

`CNS(=O)(=O)Nc1cccc(Cc2c(CN(C)C)c3c(C)cc(OC(=O)N(C)C)cc3oc2=O)c1F` [Compound 253, 4-((dimethylamino)methyl)-3-(2-fluoro-3-((N-methylsulfamoyl)amino)benzyl)-5-methyl-2-oxo-2H-chromen-7-yl dimethylcarbamate] gave a Papp at 4 h, 50 μM in data set [5] of 48 ×10⁻⁶ cm/s.

In data set [5], `CCS(=O)(=O)Nc1cccc(Cc2c(CN3CCNCC3)c3ccc(OC(=O)N(C)C)cc3oc2=O)c1Cl` [Compound 258, 3-(2-chloro-3-(ethylsulfonamido)benzyl)-2-oxo-4-(piperazin-1-ylmethyl)-2H-chromen-7-yl dimethylcarbamate] registered a Papp at 4 h, 50 μM of 1 ×10⁻⁶ cm/s.

In general, inhibition refers to the percentage by which the read-out fell short of the control. In the case of `Nc1ccc(S(=O)(=O)Nc2ccnn2-c2ccccc2)cc1` [Sulfaphenazole, reference compound], the “2C9* (Diclofenac)” value in data set [6] (10 μM, human liver microsomes, percent inhibition) amounted to 101.2. The compound also yielded an inhibition at 30 min, 10 µM in data set [6] (human, microsomes, pH 7.4) of 95.6%.
